Consider nine molecules from patent US5017689A, “Dynorphin analogs specific for kappa opioid receptors” (Arizona Technology Development Corporation, priority 1989, dated 1991).

Where two headings read alike, the source gives them in different places. Bridge positions count the residues as written; N and C are the ends. Peptide text beside a SMILES is read from it.

The target in experiment [1] is T1, δ opioid receptors (Rattus norvegicus, UniProt P33533).
T1 construct: membranes prepared from whole rat brain (less cerebellum); from tissue; host or cells: whole rat brain (less cerebellum) membranes
T1 sequence (P33533 whole entry): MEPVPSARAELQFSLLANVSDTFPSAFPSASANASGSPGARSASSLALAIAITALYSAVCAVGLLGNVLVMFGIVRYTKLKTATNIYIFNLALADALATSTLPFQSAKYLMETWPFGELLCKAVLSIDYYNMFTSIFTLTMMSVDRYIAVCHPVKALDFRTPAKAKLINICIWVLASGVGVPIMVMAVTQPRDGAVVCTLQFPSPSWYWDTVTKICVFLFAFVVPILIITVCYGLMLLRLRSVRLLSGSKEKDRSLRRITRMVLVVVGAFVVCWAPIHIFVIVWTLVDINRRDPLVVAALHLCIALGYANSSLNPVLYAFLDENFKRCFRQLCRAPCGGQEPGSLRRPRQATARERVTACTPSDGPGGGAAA
Nature of the experiment: Radioligand binding, [3H]DPDPE, brain membranes. Particulars: rat brain homogenate, 1.0 nM radioligand.
Experimental: (§2) Samples were incubated for 1.0 h at 25° C. before filtration through glass fiber filter strips (GF/B, Whatman) pretreated with 0.1% polyethylenimine. Nonspecific binding (=20% of total binding) was defined as binding measured in the presence of 1.0 μM Dyn A1-13.

The target in experiment [2] is μ opioid receptors (Rattus norvegicus, UniProt P33535). Nature of the experiment: biochemical.
Sequence of μ opioid receptors (P33535 whole entry): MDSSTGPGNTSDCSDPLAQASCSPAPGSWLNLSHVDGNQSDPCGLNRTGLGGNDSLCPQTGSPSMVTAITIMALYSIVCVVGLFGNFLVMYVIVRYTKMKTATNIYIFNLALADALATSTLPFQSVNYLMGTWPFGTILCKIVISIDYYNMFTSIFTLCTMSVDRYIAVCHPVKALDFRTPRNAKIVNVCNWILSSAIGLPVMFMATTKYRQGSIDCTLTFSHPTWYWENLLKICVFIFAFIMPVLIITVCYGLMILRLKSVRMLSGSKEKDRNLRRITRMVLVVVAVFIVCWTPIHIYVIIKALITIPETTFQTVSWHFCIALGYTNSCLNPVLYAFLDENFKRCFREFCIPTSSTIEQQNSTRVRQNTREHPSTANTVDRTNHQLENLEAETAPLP
Experimental: as §2
The target in experiment [3] is T2, κ opioid receptors (Cavia porcellus, UniProt P41144).
T2 construct: from tissue; host or cells: whole guinea pig brain membranes
T2 sequence (P41144 whole entry): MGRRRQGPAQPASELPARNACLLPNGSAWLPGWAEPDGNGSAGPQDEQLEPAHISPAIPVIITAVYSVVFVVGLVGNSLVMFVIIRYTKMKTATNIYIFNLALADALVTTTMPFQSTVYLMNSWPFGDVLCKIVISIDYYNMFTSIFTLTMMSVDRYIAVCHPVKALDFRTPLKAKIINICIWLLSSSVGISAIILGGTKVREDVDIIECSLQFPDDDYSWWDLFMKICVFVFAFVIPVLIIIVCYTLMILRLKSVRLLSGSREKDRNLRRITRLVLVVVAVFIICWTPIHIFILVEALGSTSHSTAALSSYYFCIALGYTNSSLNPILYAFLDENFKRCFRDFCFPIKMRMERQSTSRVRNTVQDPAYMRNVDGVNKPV
Nature of the experiment: Radioligand binding, inhibition of [3H]U-69593 binding to guinea pig brain membrane.

Experiment [4] concerns guinea pig ileum (GPI) longitudinal muscle/myenteric plexus preparation. Nature of the experiment: Guinea pig ileum (GPI) longitudinal muscle/myenteric plexus bioassay. It counts as cell-based. The method, then:
The known guinea pig ileum (GPI) longitudinal muscle/myenteric plexus preparation was used for in vitro bioassays (Kosterlitz, H.W., Lydon, R.J., and Watt, A.J., (1970), Br. J. Pharmacol., 39, 398-413). The tissues were suspended under a final tension of 1 g in organ baths, bathed with Krebs buffer (NaCl 118 mM, KCl 4.7 mM, CaCl2 2.5 mM, KH2 PO4 1.19 mM, MgSO4 1.18 mM, NaHCO3 25 mM, and glucose 11.48 mM), maintained at 37° C. and aerated with 95% O2 /5% CO2. Electrical stimuli were 0.4 msec pulses of supramaximal voltage, at a rate 6/min. Isometric contractions were measured via strain gauge force transducers on chart recorders. The mouse vas deferens (MVD) preparation was also performed as described by Hughes et al. (Hughes, J., Kosterlitz, H.W., and Leslie, F.M., (1975), Br. J. Pharmacol., 53, 371-381). The Krebs buffer was made as above, but without magnesium and the tissues were suspended under a final tension of 500 mg. Pulse duration was 2 msec. Dose-response testing in all preparations was carried out in a cumulative fashion. The compounds were tested for intrinsic agonist activity in the two in vitro bioassays. […] Ke values were calculated according to the formula: […]
(§1) where [Ant] is the concentration of the antagonist, and DR is the dose ratio (i.e., IC50 after antagonism divided by the IC50 before antagonist activity was measured).

In experiment [5] the test system is mouse vas deferens (MVD) preparation. Nature of the experiment: Mouse vas deferens (MVD) bioassay. It counts as cell-based. The method, then: The known guinea pig ileum (GPI) longitudinal muscle/myenteric plexus preparation was used for in vitro bioassays (Kosterlitz, H.W., Lydon, R.J., and Watt, A.J., (1970), Br. J. Pharmacol., 39, 398-413). The tissues were suspended under a final tension of 1 g in organ baths, bathed with Krebs buffer (NaCl 118 mM, KCl 4.7 mM, CaCl2 2.5 mM, KH2 PO4 1.19 mM, MgSO4 1.18 mM, NaHCO3 25 mM, and glucose 11.48 mM), maintained at 37° C. and aerated with 95% O2 /5% CO2. Electrical stimuli were 0.4 msec pulses of supramaximal voltage, at a rate 6/min. Isometric contractions were measured via strain gauge force transducers on chart recorders. The mouse vas deferens (MVD) preparation was also performed as described by Hughes et al. (Hughes, J., Kosterlitz, H.W., and Leslie, F.M., (1975), Br. J. Pharmacol., 53, 371-381). The Krebs buffer was made as above, but without magnesium and the tissues were suspended under a final tension of 500 mg. Pulse duration was 2 msec. Dose-response testing in all preparations was carried out in a cumulative fashion. The compounds were tested for intrinsic agonist activity in the two in vitro bioassays. Thus, concentrations showing intrinsic activity for each analog were tested in the presence of naloxone (1000 nM) to define opioid activity. To further define the opioid selectivity of the agonist effect, the δ selective antagonist ICI 174,864 (Cotton, R., Giles, M.G., Miller, L., Shaw, J.S., and Timms, D. (1984), Eur. J. Pharmacol., 97, 331-332) was utilized in the MVD, and the μ selective antagonists CTAP (Pelton, J.T., Kazmierski, W., Gulya, K., Yamamura, H.I., and Hruby, V.J. (1986), J. Med. Chem., 29, 2370-2375) or CTP (Pelton, J.T., Gulya, K., Hruby, V.J., Duckles, S., and Yamamura, H.I. (1985) Proc. Natl. Acad. Sci. U.S.A., 82, 236-239) were employed in the GPI, all at 1000 nM. Ke values were calculated according to the formula: […]
as §1

For experiment [6], the system named is kappa opioid receptor. Particulars: cited from earlier work.
For experiment [7] the following is noted: administered i.c.v.; cited from earlier work.
For experiment [8] the following is noted: administered i.c.v.; cited from earlier work. The source holds these as a separate data set.
The mark [9] stands for this setting: selectivity, ratio of IC50 values.

Turning to `CC(C)C[C@@H]1NC(=O)[C@H](CCCCN)NC(=O)[C@@H]2CCCN2C(=O)[C@H](CCCN=C(N)N)NC(=O)[C@@H](NC(=O)[C@H](CCCN=C(N)N)NC(=O)[C@H](CCCN=C(N)N)NC(=O)[C@H](CC(C)C)NC(=O)[C@H](Cc2ccccc2)NC(=O)CNC(=O)CNC(=O)[C@@H](N)Cc2ccc(O)cc2)CSSC[C@@H](C(N)=O)NC1=O` [Compound 3], the IC50 in experiment [1] was determined as 3.97 ± 0.96 nM; in experiment [2], 0.98 ± 0.12 nM.

On to `CC[C@H](C)[C@H](NC(=O)[C@H](CCCNC(=N)N)NC(=O)[C@H](CCCNC(=N)N)NC(=O)[C@H](CC(C)C)NC(=O)[C@H](Cc1ccccc1)NC(=O)CNC(=O)CNC(=O)[C@@H](N)Cc1ccccc1)C(=O)N[C@@H](CCCNC(=N)N)C(=O)N1CCC[C@@H]1C(=O)N[C@@H](CCCCN)C(N)=O` [Compound 6, [Phe^1, D-Pro^10]Dyn A1-11NH2], for which the 50% inhibitory concentration (IC50) in experiment [3] worked out at 2.4 ± 0.56 nM; in experiment [1], 390 ± 52 nM; in experiment [2], 120 ± 22 nM.

Turning to `CC(C)C[C@H](NC(=O)[C@H](Cc1ccccc1)NC(=O)CNC(=O)CNC(=O)[C@@H](N)Cc1ccc(O)cc1)C(=O)N[C@@H](CCCNC(=N)N)C(=O)N[C@@H](CCCNC(=N)N)C(=O)N[C@@H]1CSSC[C@H](C(N)=O)NC(=O)[C@H](CC(C)C)NC(=O)[C@H](CCCCN)NC(=O)[C@@H]2CCCN2C(=O)[C@H](CCCNC(=N)N)NC1=O` [Compound 5], the δ/κ in experiment [3] (setting [9]) amounted to 130. Also, in experiment [3] (setting [9]), the μ/κ is given as 3. Moreover, the IC50 in experiment [3] (κ, guinea pig brain homogenate, 1.0 nM radioligand, read-out: IC50 (nM) [3H]-U-69,593) is 0.11 ± 0.009 nM; in experiment [4] it was 1.75 nM; in experiment [5] it was 19.5 nM. In addition, the “Ke (nM) for: NLX” value is listed as 233 nM in experiment [4] (naloxone 1000 nM) and 18.2 nM in experiment [5] (naloxone 1000 nM). Besides, the “Ke (nM) for: ICI” value in experiment [5] (δ antagonist ICI 174,864 1000 nM) was found to be 1000 nM. The “Ke (nM) for: CTAP” value in experiment [5] (μ antagonist CTAP 1000 nM) is recorded as 1430 nM.

For the molecule `CC[C@H](C)[C@@H]1NC(=O)[C@H](CCCN=C(N)N)NC(=O)[C@H](CCCN=C(N)N)NC(=O)[C@@H](NC(=O)[C@H](Cc2ccccc2)NC(=O)CNC(=O)CNC(=O)[C@@H](N)Cc2ccc(O)cc2)CSSC[C@@H](C(N)=O)NC(=O)[C@@H]2CCCN2C(=O)[C@H](CCCN=C(N)N)NC1=O` [Compound 1] (H-YGGFCRRIRPC-NH2; disulfide 5-11), the IC50 in experiment [3] worked out at 0.39 ± 0.06 nM; in experiment [1], 18.6 ± 7.5 nM; in experiment [2] it was 2.3 ± 0.72 nM.

Take `CC(C)C[C@H](NC(=O)[C@H](Cc1ccccc1)NC(=O)CNC(=O)CNC(=O)[C@@H](N)Cc1ccc(Br)cc1)C(=O)N[C@@H](CCCNC(=N)N)C(=O)N[C@@H](CCCNC(=N)N)C(=O)N[C@H](C)C(=O)N[C@@H](CCCNC(=N)N)C(=O)N1CCC[C@H]1C(=O)N[C@@H](CCCCN)C(N)=O` [Compound 7, [p-BrPhe^1, D-Ala^8]Dyn A1-11NH2]: the IC50 in experiment [3] amounted to 1.7 ± 0.14 nM; in experiment [1], 1060 ± 40 nM; in experiment [2], 47 ± 5.1 nM.

Consider [D-pro^10 ]Dyn A1-11 -OH [DPDYN], for which the reported binding affinity result in experiment [6] (against the kappa ligand [3H]Bremazocine) is “about 0.032 nM”. In addition, the “κ vs. μ and κ vs δ selectivities” value in experiment [6] is “high”. Also, in experiment [7], the “activity against thermal stimulus” value is reported as “did not show any activity”. In experiment [8], the “effect against chemical pain” value is given as “dose-related effect”.

Regarding `C[C@H]1NC(=O)[C@H](CCCNC(=N)N)NC(=O)[C@H](CCCNC(=N)N)NC(=O)[C@@H](NC(=O)[C@H](Cc2ccccc2)NC(=O)CNC(=O)CNC(=O)[C@@H](N)Cc2ccc(O)cc2)CSSC[C@@H](C(N)=O)NC(=O)[C@@H]2CCCN2C(=O)[C@H](CCCNC(=N)N)NC1=O` [Compound 2], the IC50 in experiment [3] was found to be 0.28 ± 0.036 nM; in experiment [1] it was 1.63 ± 0.53 nM; in experiment [2] it was 0.27 ± 0.14 nM.

As to `CC[C@H](C)[C@H](NC(=O)[C@H](CCCN=C(N)N)NC(=O)[C@H](CCCN=C(N)N)NC(=O)[C@H](CC(C)C)NC(=O)[C@H](Cc1ccccc1)NC(=O)CNC(=O)CNC(=O)[C@@H](N)Cc1ccc(O)cc1)C(=O)N[C@@H](CCCN=C(N)N)C(=O)N1CCC[C@H]1C(=O)N[C@@H](CCCCN)C(=O)N[C@@H](CC(C)C)C(=O)N[C@@H](CCCCN)C(N)=O` [Dyn A1-13NH2, reference compound], the results for the IC50 in experiment [3], in experiment [1] and in experiment [2] were 0.109 ± 0.003 nM, 2.96 nM and 1.33 nM, respectively.

For `CC(C)C[C@@H]1NC(=O)[C@H](CCCCN)NC(=O)[C@@H]2CCCN2C(=O)[C@H](CCCNC(=N)N)NC(=O)[C@H](NC(=O)[C@H](CCCNC(=N)N)NC(=O)[C@H](CCCNC(=N)N)NC(=O)[C@H](CC(C)C)NC(=O)[C@H](Cc2ccccc2)NC(=O)CNC(=O)CNC(=O)[C@@H](N)Cc2ccc(O)cc2)CSSC[C@@H](C(N)=O)NC1=O` [Compound 4], the IC50 is 104 ± 1.86 nM in experiment [1] and 10.3 ± 3.9 nM in experiment [2].

As a reminder, the IC50 is the point on the concentration scale where inhibition reaches its midpoint.
